In patent US7902361B2, “Pyrimidin-4-yl-3, 4-thione compounds and their use in therapy” (Cyclacel Limited, priority 2003, dated 2011):

Columns and labels:
Assay type in all cases: biochemical
[1] = biological target: CDK7/cyclin H (Homo sapiens, UniProt P50613); test: Kinase assay CDK7/cyclin H; settings: Ki calculated (Cheng-Prusoff) from experimentally determined IC50 and Km,ATP; read-out: Kinase Inhibition Ki CDK7 - cyclin H
How it was run: (§1)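 Radiometric filter assays used recombinant kinases or complexes (2-4 μg) with appropriate polypeptide substrates in pH 7.4 β-glycerophosphate/MOPS buffer. Reactions were started with 15 mM MgCl2 and 100 μM ATP containing [γ-32P]-ATP and run at 30° C. Phosphate incorporated into substrate was counted by scintillation after washing.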

[2] = biological target: CDK4/cyclin D1 (Homo sapiens, UniProt P11802); test: Kinase assay CDK4/cyclin D1; settings: Ki calculated (Cheng-Prusoff) from experimentally determined IC50 and Km,ATP; read-out: Kinase Inhibition Ki CDK4 - cyclin D1
How it was run: as §1

[3] = biological target: CDK9/cyclin T1 (Homo sapiens, UniProt P50750); test: Kinase assay CDK9/cyclin T1; settings: Ki calculated (Cheng-Prusoff) from experimentally determined IC50 and Km,ATP; read-out: Kinase Inhibition Ki CDK9 - cyclin T1
How it was run: as §1

[4] = biological target: CDK2/cyclin E (Homo sapiens, UniProt P24941); test: Kinase assay CDK2/cyclin E; settings: Ki calculated (Cheng-Prusoff) from experimentally determined IC50 and Km,ATP; read-out: Kinase Inhibition Ki CDK2 - cyclin E
How it was run: (§2)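 Radiometric assays measured transfer of radioactive phosphate from ATP onto polypeptide substrates, using 2-4 μg recombinant active enzyme in buffer typically containing 25 mM β-glycerophosphate, 20 mM MOPS, 5 mM EGTA, 1 mM DTT and 1 mM Na3VO3 at pH 7.4. Reactions were stopped on ice, filtered on P81 or GF/C plates and washed with orthophosphoric acid. Incorporated radioactivity was scintillation-counted.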

[5] = biological target: T1, GSK3β (Homo sapiens, UniProt P49841); test: GSK3β in vitro kinase assay; settings: recombinant human GSK3β, 100 μM ATP
T1 construct: purchased New England Biolabs
Procedure: Both isoforms of GSK3 (α and β) are involved in the regulation of glycogen synthase activity—key enzyme in the glycogen metabolism.
A 10-point titration was set up to determine the IC50 values of selected example compounds against GSK3β. Assays were performed using 96-well microtiter plates with a final volume of 25 μL per well. Each assay contained 1.5 units of GSK3β(New England Biolabs), 200 μM CREB phosphopeptide ([…]pSYR, Alta Biosciences), 20 mM Tris HCl pH7.5, 5 mM DTT, 15 mM MgCl2 supplemented with 100 μM ATP and 0.5 μCi of [γ-^32P] ATP plus or minus inhibitor in 2% DMSO. Assays were carried out for 30 minutes at 30° C. before stopping the reaction by the addition of an equal volume of 75 mM aqueous phosphoric acid. Samples were then spotted onto a p81 filterplate (Whatman) and a vacuum was applied. Wells were washed 3 times with 200 μL of dilute aqueous phosphoric acid before the addition of 50 μL Microscint 40 per well. Incorporation of radioactivity was determined on a Topcount microplate scintillation counter (Packard).

[6] = biological target: T2, aurora A (Homo sapiens, UniProt O14965); test: Kinase assay aurora A; settings: Ki calculated (Cheng-Prusoff) from experimentally determined IC50 and Km,ATP; read-out: Kinase Inhibition Ki Aurora A
T2 sequence (O14965 1-403): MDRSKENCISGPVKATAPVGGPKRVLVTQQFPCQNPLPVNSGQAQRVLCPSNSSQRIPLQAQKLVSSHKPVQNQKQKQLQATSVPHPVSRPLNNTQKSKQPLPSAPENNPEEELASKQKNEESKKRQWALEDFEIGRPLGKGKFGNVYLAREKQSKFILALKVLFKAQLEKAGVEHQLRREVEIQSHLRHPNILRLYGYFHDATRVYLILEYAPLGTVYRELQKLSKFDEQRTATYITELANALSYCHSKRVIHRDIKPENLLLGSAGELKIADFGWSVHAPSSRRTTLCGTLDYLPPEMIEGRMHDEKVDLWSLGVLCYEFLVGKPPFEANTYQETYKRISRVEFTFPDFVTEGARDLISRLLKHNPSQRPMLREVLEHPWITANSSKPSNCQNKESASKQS
Procedure: The compounds from the examples above were investigated for their ability to inhibit the enzymatic activity of various protein kinases. This was achieved by measurement of incorporation of radioactive phosphate from ATP into appropriate polypeptide substrates. Recombinant protein kinases and kinase complexes were produced or obtained commercially. Assays were performed using 96-well plates and appropriate assay buffers (typically 25 mM β-glycerophosphate, 20 mM MOPS, 5 mM EGTA, 1 mM DTT, 1 mM […], pH 7.4), into which were added 2-4 μg of active enzyme with appropriate substrates. […] Reactions were stopped on ice, followed by filtration through p81 filterplates or GF/C filterplates (Whatman Polyfiltronics, Kent, UK). After washing 3 times with 75 mM aq orthophosphoric acid, plates were dried, scintillant added and incorporated radioactivity measured in a scintillation counter (TopCount, Packard Instruments, Pangbourne, Berks, UK). Compounds for kinase assay were made up as 10 mM stocks in DMSO and diluted into 10% DMSO in assay buffer.

[7] = biological target: CDK2/cyclin A (Homo sapiens, UniProt P24941); test: Kinase assay CDK2/cyclin A; settings: Ki calculated (Cheng-Prusoff) from experimentally determined IC50 and Km,ATP; read-out: Kinase Inhibition Ki CDK2 - cyclin A
How it was run: as §2

[8] = biological target: CDK1/cyclin B (Homo sapiens, UniProt P06493); test: Kinase assay CDK1/cyclin B (radioactive phosphate incorporation); settings: Ki calculated (Cheng-Prusoff) from experimentally determined IC50 and Km,ATP; read-out: Kinase Inhibition Ki CDK1 - cyclin B
How it was run: as §2

T1 sequence (P49841 whole entry): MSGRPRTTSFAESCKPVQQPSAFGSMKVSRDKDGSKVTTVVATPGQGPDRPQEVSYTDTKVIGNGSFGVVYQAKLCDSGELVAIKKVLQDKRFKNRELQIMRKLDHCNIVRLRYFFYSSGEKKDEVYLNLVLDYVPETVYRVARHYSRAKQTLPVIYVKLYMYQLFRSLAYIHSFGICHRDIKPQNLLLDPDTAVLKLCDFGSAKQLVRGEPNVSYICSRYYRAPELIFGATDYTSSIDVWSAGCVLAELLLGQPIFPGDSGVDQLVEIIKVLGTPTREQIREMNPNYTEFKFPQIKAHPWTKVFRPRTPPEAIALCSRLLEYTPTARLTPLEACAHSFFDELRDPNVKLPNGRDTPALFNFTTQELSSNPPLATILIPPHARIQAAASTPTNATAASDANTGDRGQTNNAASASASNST
Sequence of CDK1/cyclin B (P06493 whole entry, species assumed): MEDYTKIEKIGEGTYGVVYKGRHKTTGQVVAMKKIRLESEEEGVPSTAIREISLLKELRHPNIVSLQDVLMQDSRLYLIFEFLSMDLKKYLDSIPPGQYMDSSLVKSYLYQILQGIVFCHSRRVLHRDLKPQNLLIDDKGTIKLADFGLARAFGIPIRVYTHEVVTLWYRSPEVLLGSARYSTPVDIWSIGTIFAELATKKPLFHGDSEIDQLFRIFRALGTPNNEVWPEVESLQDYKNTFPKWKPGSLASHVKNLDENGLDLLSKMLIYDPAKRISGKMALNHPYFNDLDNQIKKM
Sequence of CDK1/cyclin B (P14635 whole entry partner, species assumed): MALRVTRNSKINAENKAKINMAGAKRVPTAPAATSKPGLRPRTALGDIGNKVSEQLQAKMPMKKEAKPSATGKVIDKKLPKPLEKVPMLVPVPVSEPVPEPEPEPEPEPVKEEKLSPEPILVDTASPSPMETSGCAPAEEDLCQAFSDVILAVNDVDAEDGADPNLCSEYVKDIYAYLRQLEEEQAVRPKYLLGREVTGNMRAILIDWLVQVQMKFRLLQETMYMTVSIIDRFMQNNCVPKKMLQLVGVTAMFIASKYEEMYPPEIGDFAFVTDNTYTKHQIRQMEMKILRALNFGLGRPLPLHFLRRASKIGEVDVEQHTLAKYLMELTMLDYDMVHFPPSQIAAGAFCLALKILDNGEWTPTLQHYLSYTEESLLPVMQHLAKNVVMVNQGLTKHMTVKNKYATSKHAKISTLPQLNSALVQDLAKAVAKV
Sequence of CDK4/cyclin D1 (P11802 whole entry, species assumed): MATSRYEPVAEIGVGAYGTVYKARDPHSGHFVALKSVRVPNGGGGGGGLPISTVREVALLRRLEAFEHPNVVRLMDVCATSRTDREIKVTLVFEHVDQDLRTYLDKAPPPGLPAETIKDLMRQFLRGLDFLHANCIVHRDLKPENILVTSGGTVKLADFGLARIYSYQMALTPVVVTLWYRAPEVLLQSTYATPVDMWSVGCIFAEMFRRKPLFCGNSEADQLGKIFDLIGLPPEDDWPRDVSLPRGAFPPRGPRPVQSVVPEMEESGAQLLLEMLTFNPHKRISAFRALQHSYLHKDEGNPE
Sequence of CDK4/cyclin D1 (P24385 whole entry partner, species assumed): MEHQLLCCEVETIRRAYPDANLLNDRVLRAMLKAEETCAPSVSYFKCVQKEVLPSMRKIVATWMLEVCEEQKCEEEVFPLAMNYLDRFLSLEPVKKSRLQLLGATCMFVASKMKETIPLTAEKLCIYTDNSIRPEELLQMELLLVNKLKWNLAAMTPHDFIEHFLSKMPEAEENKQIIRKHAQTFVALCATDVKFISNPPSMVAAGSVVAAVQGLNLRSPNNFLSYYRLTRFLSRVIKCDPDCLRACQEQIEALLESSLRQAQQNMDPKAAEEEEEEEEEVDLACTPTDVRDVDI
Sequence of CDK9/cyclin T1 (P50750 whole entry, species assumed): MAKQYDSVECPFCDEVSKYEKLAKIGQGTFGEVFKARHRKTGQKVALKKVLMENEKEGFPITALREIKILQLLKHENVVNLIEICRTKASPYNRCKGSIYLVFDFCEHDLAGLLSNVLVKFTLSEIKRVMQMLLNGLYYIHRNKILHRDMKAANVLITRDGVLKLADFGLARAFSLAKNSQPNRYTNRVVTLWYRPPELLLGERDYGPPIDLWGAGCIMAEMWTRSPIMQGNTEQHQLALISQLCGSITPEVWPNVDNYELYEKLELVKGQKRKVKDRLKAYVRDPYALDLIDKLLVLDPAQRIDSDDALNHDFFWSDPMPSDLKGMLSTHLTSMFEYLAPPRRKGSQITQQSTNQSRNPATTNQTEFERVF
Sequence of CDK9/cyclin T1 (O60563 whole entry partner, species assumed): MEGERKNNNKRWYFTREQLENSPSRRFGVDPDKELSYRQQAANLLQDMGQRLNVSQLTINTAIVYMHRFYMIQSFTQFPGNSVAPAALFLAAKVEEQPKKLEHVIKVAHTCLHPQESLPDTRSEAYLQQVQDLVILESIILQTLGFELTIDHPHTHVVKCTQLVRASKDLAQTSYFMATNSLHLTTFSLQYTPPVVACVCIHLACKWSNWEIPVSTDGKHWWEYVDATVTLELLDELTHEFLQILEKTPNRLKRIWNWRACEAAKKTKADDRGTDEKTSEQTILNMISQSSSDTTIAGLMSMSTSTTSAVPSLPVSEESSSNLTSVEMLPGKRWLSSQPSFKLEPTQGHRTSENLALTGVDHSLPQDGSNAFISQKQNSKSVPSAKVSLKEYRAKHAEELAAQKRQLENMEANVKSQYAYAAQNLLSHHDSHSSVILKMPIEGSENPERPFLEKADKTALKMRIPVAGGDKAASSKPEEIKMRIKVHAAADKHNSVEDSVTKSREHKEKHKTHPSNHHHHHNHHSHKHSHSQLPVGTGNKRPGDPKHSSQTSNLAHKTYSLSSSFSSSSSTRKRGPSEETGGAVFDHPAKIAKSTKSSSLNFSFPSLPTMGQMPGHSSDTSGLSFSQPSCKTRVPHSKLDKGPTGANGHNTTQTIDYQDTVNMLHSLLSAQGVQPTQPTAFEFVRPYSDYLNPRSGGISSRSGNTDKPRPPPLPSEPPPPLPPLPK
Sequence of CDK7/cyclin H (P50613 whole entry, species assumed): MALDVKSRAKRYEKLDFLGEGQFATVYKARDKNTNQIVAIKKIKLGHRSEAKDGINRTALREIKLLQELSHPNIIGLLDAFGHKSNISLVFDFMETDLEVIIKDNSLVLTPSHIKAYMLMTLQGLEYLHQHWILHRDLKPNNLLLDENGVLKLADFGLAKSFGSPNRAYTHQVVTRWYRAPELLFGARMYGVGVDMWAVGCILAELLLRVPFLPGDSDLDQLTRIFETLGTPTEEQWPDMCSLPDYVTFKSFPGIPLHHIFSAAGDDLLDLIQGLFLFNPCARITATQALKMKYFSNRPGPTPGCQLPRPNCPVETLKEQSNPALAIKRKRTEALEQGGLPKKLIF
Sequence of CDK7/cyclin H (P51946 whole entry partner, species assumed): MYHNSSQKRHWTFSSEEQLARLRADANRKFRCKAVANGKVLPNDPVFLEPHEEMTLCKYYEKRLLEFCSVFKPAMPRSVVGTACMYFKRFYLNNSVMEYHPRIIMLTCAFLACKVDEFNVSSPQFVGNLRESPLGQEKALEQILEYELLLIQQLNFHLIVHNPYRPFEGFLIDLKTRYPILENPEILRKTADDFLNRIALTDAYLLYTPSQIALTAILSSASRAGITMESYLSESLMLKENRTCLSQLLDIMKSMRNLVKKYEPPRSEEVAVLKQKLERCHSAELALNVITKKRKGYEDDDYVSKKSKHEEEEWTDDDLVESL

`Cc1c(-c2ccnc(Nc3ccc(N4CCNCC4)c(Cl)c3)n2)sc(=O)n1C` [Compound 44, 5-[2-(3-Chloro-4-piperazin-1-yl-phenylamino)-pyrimidin-4-yl]-3,4-dimethyl-3H-thiazol-2-one] was tested, and the Ki [1] was 0.019 µM, the Ki [2] was 0.036 µM and the Ki [3] was 0.0034 µM. It also gave a Ki [4] of 0.062 µM, an IC50 [5] of 0.0178 µM and a Ki [6] of 0.038 µM. For the same compound, the Ki [7] was 0.099 µM and the Ki [8] was 0.086 µM.

`CCn1c(C)c(-c2ccnc(Nc3ccc(F)cc3)n2)sc1=O` [Compound 45, 3-Ethyl-5-[2-(4-fluoro-phenylamino)-pyrimidin-4-yl]-4-methyl-3H-thiazol-2-one] gave a Ki [1] of 0.22 µM, a Ki [2] of 5 µM and a Ki [3] of 0.011 µM. The Ki [4] was 0.024 µM, the IC50 [5] was 0.0152 µM and the Ki [6] was 0.043 µM. The Ki [7] was 0.052 µM and the Ki [8] was 0.3 µM.

In the case of `CCn1c(C)c(-c2ccnc(Nc3ccc(C)c(O)c3)n2)sc1=O` [Compound 47, 3-Ethyl-5-[2-(3-hydroxy-4-methyl-phenylamino)-pyrimidin-4-yl]-4-methyl-3H-thiazol-2-one], the Ki [1] is reported as 0.017 µM, the Ki [2] is reported as 1.8 µM and the Ki [3] is reported as 0.003 µM. It also gave a Ki [4] of 0.015 µM, an IC50 [5] of 0.0308 µM and a Ki [6] of 0.053 µM. For the same compound, the Ki [7] was 0.087 µM and the Ki [8] was 0.18 µM.

In the case of `CC(=O)N1CCN(c2cccc(Nc3nccc(-c4sc(=O)n(C)c4C)n3)c2)CC1` [Compound 49, 5-{2-[3-(4-Acetyl-piperazin-1-yl)-phenylamino]-pyrimidin-4-yl}-3,4-dimethyl-3H-thiazol-2-one], the Ki [1] is reported as 1.1 µM, the Ki [2] is reported as 0.0097 µM and the Ki [3] is reported as 0.03 µM. It also gave a Ki [4] of 1.3 µM, an IC50 [5] of 0.38 µM and a Ki [6] of 0.11 µM. The Ki [7] was 3 µM and the Ki [8] was 0.93 µM.

`Cc1c(-c2ccnc(Nc3cccc(CNS(C)(=O)=O)c3)n2)sc(=O)n1C` [Compound 55, N-{3-[4-(3,4-Dimethyl-2-oxo-2,3-dihydro-thiazol-5-yl)-pyrimidin-2-ylamino]-benzyl}-methane-sulfonamide] gave a Ki [1] of 0.11 µM, a Ki [2] of 0.11 µM and a Ki [3] of 0.0022 µM. For the same compound, the Ki [4] was 0.039 µM, the IC50 [5] was 0.082 µM and the Ki [6] was 0.046 µM. It also gave a Ki [7] of 0.042 µM and a Ki [8] of 0.16 µM.

`Cc1c(-c2ccnc(Nc3cccc(CNC(=O)c4ccccc4)c3)n2)sc(=O)n1C` [Compound 57, N-{3-[4-(3,4-Dimethyl-2-oxo-2,3-dihydro-thiazol-5-yl)-pyrimidin-2-ylamino]-benzyl}-benzamide] gave a Ki [1] of 1.3 µM, a Ki [2] of 0.021 µM and a Ki [3] of 0.0016 µM. The Ki [4] was 0.052 µM, the IC50 [5] was 0.0178 µM and the Ki [6] was 0.16 µM. It also gave a Ki [7] of 0.54 µM and a Ki [8] of 0.36 µM.

`Cc1c(-c2ccnc(Nc3cccc(CNS(=O)(=O)C(F)(F)F)c3)n2)sc(=O)n1C` [Compound 58, N-{3-[4-(3,4-Dimethyl-2-oxo-2,3-dihydro-thiazol-5-yl)-pyrimidin-2-ylamino]-benzyl}-C,C,C-trifluoro-methanesulfonamide] was tested, and the Ki [1] was 0.096 µM, the Ki [2] was 5.1 µM and the Ki [3] was 0.0064 µM. It also gave a Ki [4] of 0.1 µM, an IC50 [5] of 0.0233 µM and a Ki [6] of 0.84 µM. It also gave a Ki [7] of 0.6 µM and a Ki [8] of 1.1 µM.

Compound `Cc1c(-c2ccnc(Nc3ccc(N4CCN(Cc5ccccc5)CC4)cc3)n2)sc(=O)n1C` [Compound 69, 5-{2-[4-(4-Benzyl-piperazin-1-yl)-phenylamino]-pyrimidin-4-yl}-3,4-dimethyl-3H-thiazol-2-one] has a Ki [1] of 0.012 µM, a Ki [2] of 0.1 µM and a Ki [3] of 0.021 µM. It also gave a Ki [4] of 0.16 µM, an IC50 [5] of 0.096 µM and a Ki [6] of 0.039 µM. For the same compound, the Ki [7] was 0.95 µM and the Ki [8] was 1.7 µM.

Work on `Cc1c(-c2ccnc(Nc3ccc(S(=O)(=O)NCCO)cc3)n2)sc(=O)n1C` [Compound 72, 4-[4-(3,4-Dimethyl-2-oxo-2,3-dihydro-thiazol-5-yl)-pyrimidin-2-ylamino]-N-(2-hydroxy-ethyl)-benzenesulfonamide] yielded a Ki [1] of 1.2 µM, a Ki [2] of 0.83 µM and a Ki [3] of 0.011 µM. It also gave a Ki [4] of 0.0005 µM, an IC50 [5] of 0.0083 µM and a Ki [6] of 0.51 µM. The Ki [7] was 0.0029 µM and the Ki [8] was 0.0054 µM.
